For this experiment, the target named is T1, human TLR7 (Homo sapiens, UniProt Q9NYK1).
T1 construct: host or cells: HEK293-Blue-hTLR-7 (HEK293)
T1 sequence (Q9NYK1 27-1049): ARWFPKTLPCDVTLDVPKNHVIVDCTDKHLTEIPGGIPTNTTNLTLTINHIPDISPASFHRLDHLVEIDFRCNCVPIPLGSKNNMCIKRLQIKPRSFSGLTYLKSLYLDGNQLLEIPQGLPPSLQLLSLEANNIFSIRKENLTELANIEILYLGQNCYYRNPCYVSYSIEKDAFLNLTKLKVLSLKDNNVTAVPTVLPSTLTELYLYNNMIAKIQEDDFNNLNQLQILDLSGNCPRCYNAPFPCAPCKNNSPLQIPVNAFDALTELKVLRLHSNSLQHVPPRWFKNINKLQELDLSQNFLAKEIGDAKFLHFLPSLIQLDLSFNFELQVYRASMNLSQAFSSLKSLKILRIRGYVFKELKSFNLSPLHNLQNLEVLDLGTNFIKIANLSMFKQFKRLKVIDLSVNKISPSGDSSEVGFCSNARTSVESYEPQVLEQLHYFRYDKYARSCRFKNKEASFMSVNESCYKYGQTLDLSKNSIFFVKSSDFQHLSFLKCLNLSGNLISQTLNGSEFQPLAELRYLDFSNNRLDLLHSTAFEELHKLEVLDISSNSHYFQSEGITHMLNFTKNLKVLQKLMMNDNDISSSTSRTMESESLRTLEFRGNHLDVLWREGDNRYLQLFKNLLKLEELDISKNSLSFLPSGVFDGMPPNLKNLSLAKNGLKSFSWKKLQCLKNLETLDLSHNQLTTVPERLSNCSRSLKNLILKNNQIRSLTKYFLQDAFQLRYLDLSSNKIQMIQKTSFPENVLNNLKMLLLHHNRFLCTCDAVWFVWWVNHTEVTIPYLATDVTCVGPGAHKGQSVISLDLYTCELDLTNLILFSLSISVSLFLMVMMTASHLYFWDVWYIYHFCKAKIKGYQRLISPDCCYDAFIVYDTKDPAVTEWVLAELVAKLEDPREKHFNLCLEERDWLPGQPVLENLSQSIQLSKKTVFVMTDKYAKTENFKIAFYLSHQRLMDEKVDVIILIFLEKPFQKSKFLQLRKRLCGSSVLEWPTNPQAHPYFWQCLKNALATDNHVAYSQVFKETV
The experiment is described as follows: HEK293-Blue-hTLR-7 cells assay. The experiment is classed as cell-based. The note with it: HEK293-Blue-hTLR7 cells, R848 stimulation, 20 hrs, SEAP reporter; read-out: HEK/hTLR7 IC50. The protocol: The following tests were carried out in order to determine the activity of the compounds of formula (I) and (Ia) in HEK293-Blue-hTLR-7/8/9 cells assay.
HEK293-Blue-hTLR-7 cells assay:
A stable HEK293-Blue-hTLR-7 cell line was purchased from InvivoGen (Cat. #: hkb-htlr7, San Diego, Calif., USA). These cells were originally designed for studying the stimulation of human TLR7 by monitoring the activation of NE-κB. A SEAP (secreted embryonic alkaline phosphatase) reporter gene was placed under the control of the IFN-β minimal promoter fused to five NE-κB and AP-1-binding sites. The SEAP was induced by activating NE-κB and AP-1 via stimulating HEK-Blue hTLR7 cells with TLR7 ligands. Therefore the reporter expression was declined by TLR7 antagonist under the stimulation of a ligand, such as R848 (Resiquimod), for incubation of 20 hrs. The cell culture supernatant SEAP reporter activity was determined using QUANTI-Blue™ kit (Cat. #: rep-qbl, Invivogen, San Diego, Ca, USA) at a wavelength of 640 nm, a detection medium that turns purple or blue in the presence of alkaline phosphatase.
HEK293-Blue-hTLR7 cells were incubated at a density of 250,000-450,000 cells/mL in a volume of 170 μL in a 96-well plate in Dulbecco's Modified Eagle's medium (DMEM) containing 4.5 g/L glucose, 50 U/mL penicillin, […], […], 2 mM L-glutamine, 10% (v/v) heat-inactivated fetal bovine serum with addition of 20 μL test compound in a serial dilution in the presence of final DMSO at 1% and 10 μL of 20 uM R848 in above DMEM, perform incubation under 37° C. in a CO2 incubator for 20 hrs. Then 20 μL of the supernatant from each well was incubated with 180 μL Quanti-blue substrate solution at 37° C. for 2 hrs and the absorbance was read at 620˜655 nm using a spectrophotometer. The signalling pathway that TLR7 activation leads to downstream NE-κB activation has been widely accepted, and therefore similar reporter assay was modified for evaluating TLR7 antagonist.
On to `C[C@@H]1CN(c2ccc(C#N)c3ncccc23)C[C@H](CN[C@H]2CCCN(c3ccnc(N)c3)C2)O1` [Example 22], for which the IC50 was 37 nM.

For `Cc1cc(N2CCC[C@@H](N(C)C[C@H]3CN(c4ccc(C#N)c5ncccc45)C[C@@H](C)O3)C2)cc(CO)n1` [Example 35], the IC50 was 17 nM.

For the molecule `Cc1cc(N2CCC23CN(C[C@H]2CN(c4ccc(C#N)c5ncccc45)C[C@@H](C)O2)C3)ccn1` [Example 15], the IC50 was found to be 7 nM.

Regarding `Cc1cc(N2CCOC3(CN(C[C@H]4CN(c5ccc(C#N)c6ncccc56)C[C@@H](C)O4)C3)C2)ccn1` [Example 16], the IC50 was below 3 nM.

On to `Cc1cc(N2C[C@H]3CN(C[C@H]4CN(c5ccc(C#N)c6ncccc56)C[C@@H](C)O4)C[C@H]3C2)cc(CO)n1` [Example 10], for which the IC50 was found to be 57 nM.

In the case of `Cc1cc(N2CCN(C[C@H]3CN(c4ccc(C#N)c5ncccc45)C[C@@H](C)O3)CC2)cc(CO)n1` [Example 50], the IC50 is 10 nM.

Consider `Cc1cc(N2CCN(C[C@H]3CN(c4ccc(C#N)c5ncccc45)C[C@@H](C)O3)[C@@H](C)C2)cc(CO)n1` [Example 4A], for which the IC50 came to 9 nM.

Turning to `Cc1cc(N2CCN(C[C@H]3CN(c4ccc(C#N)c5ncccc45)C[C@@H](C)O3)[C@H](C)C2)cc(CO)n1` [Example 4B], the IC50 was 10 nM.

For the molecule `Cc1cc(N2CC(N(C)C[C@H]3CN(c4ccc(C#N)c5ncccc45)C[C@@H](C)O3)C2)cc(CO)n1` [Example 37], the IC50 is 34 nM.

As to `Cc1cc(N2CCOC3CN(CC4CN(c5ccc(C#N)c6ncccc56)CC(C)O4)CC32)cc(C)n1` (single isomer, unassigned) [Example 17B], the IC50 came to 11 nM.

For the molecule `C[C@@H]1CN(c2ccc(C#N)c3ncccc23)C[C@H](CN2CC3(C2)CN(c2ccnc(C(C)(C)O)c2)C3)O1` [Example 48, 5-[(2S,6R)-2[[2-[2-(1-hydroxy-1-methyl-ethyl)-4-pyridyl]-2,6-diazaspiro[3.3]heptan-6-yl]methyl]-6-methyl-morpholin-4-yl]quinoline-8-carbonitrile], the IC50 was determined as 55 nM.

In the case of `Cc1cc(N(C)C2CN(C[C@H]3CN(c4ccc(C#N)c5ncccc45)C[C@@H](C)O3)C2)cc(C)n1` [Example 11], the IC50 turned out to be 8 nM.

Regarding `Cc1cc(N2CC[C@@H](F)[C@H](NC[C@H]3CN(c4ccc(C#N)c5ncccc45)C[C@@H](C)O3)C2)cc(CO)n1` [Example 34], the IC50 was 12 nM.

For the origin of these results see patent US20210269451A1, “PYRIDINYL HETEROCYCLYL COMPOUNDS FOR THE TREATMENT OF AUTOIMMUNE DISEASE” (Hoffmann-La Roche Inc., priority 2018, published 2021).
